# From PubChem BioAssay (NCI)
#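 These data come from cells grown in 96-well plates and exposed to compound for 48 hours at five concentrations. Definition used: TGI = concentration required for complete inhibition of growth.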
# Legend:
# Assay in all cases: DTP human tumour cell line panel, 48 h
# IGROV1 ovarian = tested on: IGROV1 ovarian
# NCI-H460 lung = tested on: NCI-H460 lung
# HL-60(TB) leukemia = tested on: HL-60(TB) leukemia
# MCF7 breast = tested on: MCF7 breast
# CAKI-1 renal = tested on: CAKI-1 renal
# SR leukemia = tested on: SR leukemia
# SK-MEL-28 melanoma = tested on: SK-MEL-28 melanoma
# OVCAR-8 ovarian = tested on: OVCAR-8 ovarian
# SF-268 CNS = tested on: SF-268 CNS
# U251 CNS = tested on: U251 CNS
# HCT-15 colon = tested on: HCT-15 colon
# UACC-257 melanoma = tested on: UACC-257 melanoma
# OVCAR-5 ovarian = tested on: OVCAR-5 ovarian
# K-562 leukemia = tested on: K-562 leukemia
# BT-549 breast = tested on: BT-549 breast
# DU-145 prostate = tested on: DU-145 prostate
# TK-10 renal = tested on: TK-10 renal
# SF-539 CNS = tested on: SF-539 CNS
# SN12C renal = tested on: SN12C renal
# EKVX NSCLC = tested on: EKVX NSCLC
# MDA-MB-435 = tested on: MDA-MB-435
# MDA-MB-231 breast = tested on: MDA-MB-231 breast
# HCT-116 colon = tested on: HCT-116 colon
# OVCAR-4 ovarian = tested on: OVCAR-4 ovarian
# MDA-N = tested on: MDA-N
# UO-31 renal = tested on: UO-31 renal
# 786-0 renal = tested on: 786-0 renal
# A549 NSCLC = tested on: A549 NSCLC
# SNB-19 CNS = tested on: SNB-19 CNS
# NCI-H226 lung = tested on: NCI-H226 lung
# M14 melanoma = tested on: M14 melanoma
# HS 578T breast = tested on: HS 578T breast
# NCI-H23 lung = tested on: NCI-H23 lung
# A498 renal = tested on: A498 renal
# KM12 colon = tested on: KM12 colon
# SF-295 CNS = tested on: SF-295 CNS
# HOP-92 NSCLC = tested on: HOP-92 NSCLC
# SK-MEL-5 melanoma = tested on: SK-MEL-5 melanoma
# LOX IMVI melanoma = tested on: LOX IMVI melanoma
# MOLT-4 leukemia = tested on: MOLT-4 leukemia
# PC-3 prostate = tested on: PC-3 prostate
# HCC-2998 colon = tested on: HCC-2998 colon
# NCI-H522 lung = tested on: NCI-H522 lung
# HT29 colon = tested on: HT29 colon
# RXF 393 renal = tested on: RXF 393 renal
# UACC-62 melanoma = tested on: UACC-62 melanoma
# SW-620 colon = tested on: SW-620 colon
# RPMI-8226 leukemia = tested on: RPMI-8226 leukemia
# COLO 205 colon = tested on: COLO 205 colon
# MALME-3M melanoma = tested on: MALME-3M melanoma
# SK-MEL-2 melanoma = tested on: SK-MEL-2 melanoma
# OVCAR-3 ovarian = tested on: OVCAR-3 ovarian
# NCI/ADR-RES ovarian = tested on: NCI/ADR-RES ovarian
# ACHN renal = tested on: ACHN renal
# HOP-62 NSCLC = tested on: HOP-62 NSCLC
# CCRF-CEM leukemia = tested on: CCRF-CEM leukemia
# T-47D breast = tested on: T-47D breast
# SK-OV-3 ovarian = tested on: SK-OV-3 ovarian
# SNB-75 CNS = tested on: SNB-75 CNS
compound,measurement,setting,value
COc1cccc2c1-c1c(OC)cccc1SS2,TGI,IGROV1 ovarian,41.6 µM
same,TGI,NCI-H460 lung,43.8 µM
same,TGI,HL-60(TB) leukemia,7.35 µM
same,TGI,MCF7 breast,> 100 µM
same,TGI,CAKI-1 renal,> 100 µM
same,TGI,SR leukemia,46.4 µM
same,TGI,SK-MEL-28 melanoma,79.4 µM
same,TGI,OVCAR-8 ovarian,72.6 µM
same,TGI,SF-268 CNS,80 µM
same,TGI,U251 CNS,46.8 µM
same,TGI,HCT-15 colon,33.3 µM
same,TGI,UACC-257 melanoma,35.9 µM
same,TGI,OVCAR-5 ovarian,40.9 µM
same,TGI,K-562 leukemia,> 100 µM
same,TGI,BT-549 breast,86.5 µM
same,TGI,DU-145 prostate,> 100 µM
same,TGI,TK-10 renal,51.1 µM
same,TGI,SF-539 CNS,33.4 µM
same,TGI,SN12C renal,30.3 µM
same,TGI,EKVX NSCLC,31.4 µM
same,TGI,MDA-MB-435,15.1 µM
same,TGI,MDA-MB-231 breast,56.1 µM
same,TGI,HCT-116 colon,40.4 µM
same,TGI,OVCAR-4 ovarian,90.5 µM
same,TGI,MDA-N,8.15 µM
same,TGI,UO-31 renal,> 100 µM
same,TGI,786-0 renal,36.2 µM
same,TGI,A549 NSCLC,33.5 µM
same,TGI,SNB-19 CNS,76.7 µM
same,TGI,NCI-H226 lung,42.7 µM
same,TGI,M14 melanoma,> 100 µM
same,TGI,HS 578T breast,> 100 µM
same,TGI,NCI-H23 lung,72.8 µM
same,TGI,A498 renal,27.4 µM
same,TGI,KM12 colon,> 100 µM
same,TGI,SF-295 CNS,43.6 µM
same,TGI,HOP-92 NSCLC,36 µM
same,TGI,SK-MEL-5 melanoma,26.5 µM
same,TGI,LOX IMVI melanoma,23.5 µM
same,TGI,MOLT-4 leukemia,38.1 µM
same,TGI,PC-3 prostate,> 100 µM
same,TGI,HCC-2998 colon,49.3 µM
same,TGI,NCI-H522 lung,64.5 µM
same,TGI,HT29 colon,36.2 µM
same,TGI,RXF 393 renal,63.6 µM
same,TGI,UACC-62 melanoma,92.5 µM
same,TGI,SW-620 colon,47.2 µM
same,TGI,RPMI-8226 leukemia,59.2 µM
same,TGI,COLO 205 colon,56.6 µM
same,TGI,MALME-3M melanoma,52 µM
same,TGI,SK-MEL-2 melanoma,46.4 µM
same,TGI,OVCAR-3 ovarian,48.7 µM
same,TGI,NCI/ADR-RES ovarian,> 100 µM
same,TGI,ACHN renal,> 100 µM
same,TGI,HOP-62 NSCLC,> 100 µM
CCOC(=O)C1=CC(C)(C(=O)OCC)Nc2c(nc(SC)n(C)c2=O)N1 (configuration not stated),TGI,IGROV1 ovarian,> 10 µM
same,TGI,NCI-H460 lung,> 10 µM
same,TGI,MCF7 breast,> 10 µM
same,TGI,CAKI-1 renal,> 10 µM
same,TGI,SK-MEL-28 melanoma,> 10 µM
same,TGI,OVCAR-8 ovarian,> 10 µM
same,TGI,SF-268 CNS,> 10 µM
same,TGI,U251 CNS,> 10 µM
same,TGI,HCT-15 colon,> 10 µM
same,TGI,UACC-257 melanoma,> 10 µM
same,TGI,OVCAR-5 ovarian,> 10 µM
same,TGI,K-562 leukemia,> 10 µM
same,TGI,BT-549 breast,> 10 µM
same,TGI,CCRF-CEM leukemia,> 10 µM
same,TGI,DU-145 prostate,> 10 µM
same,TGI,TK-10 renal,> 10 µM
same,TGI,SF-539 CNS,> 10 µM
same,TGI,SN12C renal,> 10 µM
same,TGI,EKVX NSCLC,> 10 µM
same,TGI,MDA-MB-435,> 10 µM
same,TGI,MDA-MB-231 breast,> 10 µM
same,TGI,HCT-116 colon,> 10 µM
same,TGI,OVCAR-4 ovarian,> 10 µM
same,TGI,MDA-N,> 10 µM
same,TGI,UO-31 renal,> 10 µM
same,TGI,786-0 renal,> 10 µM
same,TGI,A549 NSCLC,> 10 µM
same,TGI,T-47D breast,> 10 µM
same,TGI,SNB-19 CNS,> 10 µM
same,TGI,NCI-H226 lung,> 10 µM
same,TGI,M14 melanoma,> 10 µM
same,TGI,NCI-H23 lung,> 10 µM
same,TGI,A498 renal,> 10 µM
same,TGI,KM12 colon,> 10 µM
same,TGI,SF-295 CNS,> 10 µM
same,TGI,HOP-92 NSCLC,> 10 µM
same,TGI,SK-MEL-5 melanoma,> 10 µM
same,TGI,LOX IMVI melanoma,> 10 µM
same,TGI,MOLT-4 leukemia,> 10 µM
same,TGI,SK-OV-3 ovarian,> 10 µM
same,TGI,PC-3 prostate,> 10 µM
same,TGI,HCC-2998 colon,> 10 µM
same,TGI,NCI-H522 lung,> 10 µM
same,TGI,HT29 colon,> 10 µM
same,TGI,SNB-75 CNS,> 10 µM
same,TGI,SW-620 colon,> 10 µM
same,TGI,RPMI-8226 leukemia,> 10 µM
same,TGI,COLO 205 colon,> 10 µM
same,TGI,MALME-3M melanoma,> 10 µM
same,TGI,SK-MEL-2 melanoma,> 10 µM
same,TGI,OVCAR-3 ovarian,> 10 µM
same,TGI,NCI/ADR-RES ovarian,> 10 µM
same,TGI,ACHN renal,> 10 µM
same,TGI,HOP-62 NSCLC,> 10 µM
CCOC(=O)Cn1nnc2cc(Nc3nc4ccccc4nc3C(=O)OCC)ccc21,TGI,IGROV1 ovarian,> 100 µM
same,TGI,NCI-H460 lung,> 100 µM
same,TGI,HL-60(TB) leukemia,> 100 µM
same,TGI,MCF7 breast,> 100 µM
same,TGI,CAKI-1 renal,> 100 µM
same,TGI,SR leukemia,> 100 µM
same,TGI,SK-MEL-28 melanoma,> 100 µM
same,TGI,OVCAR-8 ovarian,> 100 µM
same,TGI,SF-268 CNS,> 100 µM
same,TGI,U251 CNS,> 100 µM
same,TGI,HCT-15 colon,> 100 µM
same,TGI,UACC-257 melanoma,> 100 µM
same,TGI,OVCAR-5 ovarian,> 100 µM
same,TGI,K-562 leukemia,> 100 µM
same,TGI,BT-549 breast,> 100 µM
same,TGI,CCRF-CEM leukemia,> 100 µM
same,TGI,DU-145 prostate,> 100 µM
same,TGI,TK-10 renal,59 µM
same,TGI,SF-539 CNS,58.6 µM
same,TGI,SN12C renal,> 100 µM
same,TGI,EKVX NSCLC,> 100 µM
same,TGI,MDA-MB-435,> 100 µM
same,TGI,HCT-116 colon,> 100 µM
same,TGI,OVCAR-4 ovarian,> 100 µM
same,TGI,MDA-N,> 100 µM
same,TGI,UO-31 renal,19.4 µM
same,TGI,786-0 renal,> 100 µM
same,TGI,A549 NSCLC,> 100 µM
same,TGI,T-47D breast,> 100 µM
same,TGI,SNB-19 CNS,> 100 µM
same,TGI,NCI-H226 lung,> 100 µM
same,TGI,M14 melanoma,> 100 µM
same,TGI,HS 578T breast,> 100 µM
same,TGI,NCI-H23 lung,> 100 µM
same,TGI,A498 renal,> 100 µM
same,TGI,KM12 colon,> 100 µM
same,TGI,SF-295 CNS,> 100 µM
same,TGI,HOP-92 NSCLC,50 µM
same,TGI,SK-MEL-5 melanoma,> 100 µM
same,TGI,LOX IMVI melanoma,> 100 µM
same,TGI,MOLT-4 leukemia,> 100 µM
same,TGI,SK-OV-3 ovarian,> 100 µM
same,TGI,PC-3 prostate,> 100 µM
same,TGI,HCC-2998 colon,> 100 µM
same,TGI,NCI-H522 lung,> 100 µM
same,TGI,HT29 colon,> 100 µM
same,TGI,RXF 393 renal,64.8 µM
same,TGI,UACC-62 melanoma,> 100 µM
same,TGI,SNB-75 CNS,9.39 µM
same,TGI,SW-620 colon,> 100 µM
same,TGI,RPMI-8226 leukemia,> 100 µM
same,TGI,COLO 205 colon,> 100 µM
same,TGI,MALME-3M melanoma,> 100 µM
same,TGI,SK-MEL-2 melanoma,> 100 µM
same,TGI,OVCAR-3 ovarian,> 100 µM
same,TGI,NCI/ADR-RES ovarian,> 100 µM
same,TGI,ACHN renal,> 100 µM
same,TGI,HOP-62 NSCLC,79.6 µM
